Results on 9 molecules are retold here after ChEMBL document CHEMBL4804285, “Small molecule inhibitors of cdk12/cdk13” (2019).

In data set [1] the target is Cyclin-dependent kinase 7 (Homo sapiens) (UniProt P50613). Nature of the data set: Inhibition of CDK7 (unknown origin) at 10 uM relative to control.
The target in data set [2] is Casein kinase I isoform epsilon (Homo sapiens, UniProt P49674). Nature of the data set: Inhibition of casein kinase 1epsilon (unknown origin).
In data set [3] the target is Cyclin-dependent kinase 12 (Homo sapiens, UniProt Q9NYV4). Put plainly: Binding affinity towards CDK12 (unknown origin) by Discover X assay.
Data set [4] deals with T1, Cyclin-dependent kinase 13 (Homo sapiens, UniProt Q14004). Put plainly: Binding affinity towards CDK13 (unknown origin) by Discover X assay.
Target sequence in this assay (Q14004 whole entry): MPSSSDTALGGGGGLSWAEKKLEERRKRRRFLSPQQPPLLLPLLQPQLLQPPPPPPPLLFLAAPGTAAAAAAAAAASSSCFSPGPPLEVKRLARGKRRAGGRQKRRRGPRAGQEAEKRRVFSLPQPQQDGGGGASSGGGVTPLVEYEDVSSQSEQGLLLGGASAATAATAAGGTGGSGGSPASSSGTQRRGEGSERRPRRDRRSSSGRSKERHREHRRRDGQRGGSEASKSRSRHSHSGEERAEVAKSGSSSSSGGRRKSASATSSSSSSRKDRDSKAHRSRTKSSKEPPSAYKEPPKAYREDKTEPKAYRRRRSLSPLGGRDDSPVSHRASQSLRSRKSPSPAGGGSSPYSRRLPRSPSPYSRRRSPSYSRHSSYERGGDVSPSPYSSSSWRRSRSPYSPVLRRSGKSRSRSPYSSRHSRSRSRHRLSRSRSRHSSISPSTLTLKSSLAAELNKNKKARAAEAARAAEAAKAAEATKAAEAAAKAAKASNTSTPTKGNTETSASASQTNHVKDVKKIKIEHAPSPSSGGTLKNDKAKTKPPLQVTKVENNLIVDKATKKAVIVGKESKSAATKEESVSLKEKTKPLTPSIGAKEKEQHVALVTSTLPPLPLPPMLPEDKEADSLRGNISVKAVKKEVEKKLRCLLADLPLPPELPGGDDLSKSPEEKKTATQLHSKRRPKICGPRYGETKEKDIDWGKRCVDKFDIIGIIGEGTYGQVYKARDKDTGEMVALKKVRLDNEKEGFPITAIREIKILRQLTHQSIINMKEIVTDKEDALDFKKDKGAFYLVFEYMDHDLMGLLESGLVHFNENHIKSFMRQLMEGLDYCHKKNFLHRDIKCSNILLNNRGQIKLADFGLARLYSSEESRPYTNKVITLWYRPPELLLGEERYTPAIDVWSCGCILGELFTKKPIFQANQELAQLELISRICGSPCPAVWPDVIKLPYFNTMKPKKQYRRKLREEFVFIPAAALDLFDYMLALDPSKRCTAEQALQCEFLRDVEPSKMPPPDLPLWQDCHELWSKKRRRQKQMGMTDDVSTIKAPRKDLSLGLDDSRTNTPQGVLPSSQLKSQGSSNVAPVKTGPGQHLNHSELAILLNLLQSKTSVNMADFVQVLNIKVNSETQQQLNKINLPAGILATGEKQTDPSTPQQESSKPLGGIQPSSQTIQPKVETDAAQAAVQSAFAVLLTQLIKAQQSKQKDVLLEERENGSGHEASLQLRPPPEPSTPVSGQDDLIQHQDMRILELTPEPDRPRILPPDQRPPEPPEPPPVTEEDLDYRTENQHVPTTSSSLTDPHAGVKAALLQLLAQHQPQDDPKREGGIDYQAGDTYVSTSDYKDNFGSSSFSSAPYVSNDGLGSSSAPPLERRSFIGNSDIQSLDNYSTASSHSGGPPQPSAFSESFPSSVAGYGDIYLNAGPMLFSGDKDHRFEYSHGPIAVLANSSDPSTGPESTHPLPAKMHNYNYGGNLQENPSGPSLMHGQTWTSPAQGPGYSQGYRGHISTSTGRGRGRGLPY
Data set [5] addresses Cyclin-dependent kinase 4 (Homo sapiens) (UniProt P11802). Put plainly: Inhibition of CDK4 (unknown origin) at 10 uM relative to control.
In data set [6] the target is T1, Cyclin-dependent kinase 13. Put plainly: Inhibition of CDK13 (unknown origin) at 10 uM relative to control.
Target sequence in this assay (Q14004 whole entry, looked up): as the sequence (Q14004 whole entry) above
Another data set deals with T2, Cytochrome P450 1A2 (Homo sapiens, UniProt P05177).
T2 sequence (P05177 whole entry): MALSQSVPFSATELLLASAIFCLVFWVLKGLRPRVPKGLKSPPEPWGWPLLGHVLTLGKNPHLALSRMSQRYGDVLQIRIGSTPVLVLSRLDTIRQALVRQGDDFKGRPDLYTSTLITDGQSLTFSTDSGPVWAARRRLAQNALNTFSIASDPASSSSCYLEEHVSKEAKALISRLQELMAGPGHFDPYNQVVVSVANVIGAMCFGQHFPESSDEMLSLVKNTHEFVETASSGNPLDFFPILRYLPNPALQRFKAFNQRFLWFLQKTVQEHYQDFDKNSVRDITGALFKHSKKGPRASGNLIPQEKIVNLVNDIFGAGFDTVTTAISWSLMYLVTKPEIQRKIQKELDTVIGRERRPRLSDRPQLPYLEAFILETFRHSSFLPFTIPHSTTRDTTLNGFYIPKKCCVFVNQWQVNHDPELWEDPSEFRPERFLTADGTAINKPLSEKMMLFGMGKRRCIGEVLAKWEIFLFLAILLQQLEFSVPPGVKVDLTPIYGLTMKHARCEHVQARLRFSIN
Put plainly: Inhibition of CYP1A2 (unknown origin). Type of data set: ADME.

Another data set concerns the target Cytochrome P450 3A4 (Homo sapiens, UniProt P08684). Put plainly: Inhibition of CYP3A4 (unknown origin). Type of data set: ADME.
Another data set addresses Cytochrome P450 2C9 (Homo sapiens, UniProt P11712). Nature of the data set: Inhibition of CYP2C9 (unknown origin). Type of data set: ADME.
The next data set has as its target Cytochrome P450 2D6 (Homo sapiens, UniProt P10635). Put plainly: Inhibition of CYP2D6 (unknown origin). It is filed as ADME.
The target in data set [7] is Casein kinase I isoform delta (Homo sapiens, UniProt P48730). Put plainly: Inhibition of casein kinase 1delta (unknown origin).
Data set [8] deals with Cyclin-dependent kinase 2 (Homo sapiens) (UniProt P24941). Nature of the data set: Inhibition of CDK2 (unknown origin) at 10 uM relative to control.
The target of data set [9] is T3, Cyclin-dependent kinase-like 5 (Homo sapiens) (UniProt O76039).
T3 sequence (whole entry): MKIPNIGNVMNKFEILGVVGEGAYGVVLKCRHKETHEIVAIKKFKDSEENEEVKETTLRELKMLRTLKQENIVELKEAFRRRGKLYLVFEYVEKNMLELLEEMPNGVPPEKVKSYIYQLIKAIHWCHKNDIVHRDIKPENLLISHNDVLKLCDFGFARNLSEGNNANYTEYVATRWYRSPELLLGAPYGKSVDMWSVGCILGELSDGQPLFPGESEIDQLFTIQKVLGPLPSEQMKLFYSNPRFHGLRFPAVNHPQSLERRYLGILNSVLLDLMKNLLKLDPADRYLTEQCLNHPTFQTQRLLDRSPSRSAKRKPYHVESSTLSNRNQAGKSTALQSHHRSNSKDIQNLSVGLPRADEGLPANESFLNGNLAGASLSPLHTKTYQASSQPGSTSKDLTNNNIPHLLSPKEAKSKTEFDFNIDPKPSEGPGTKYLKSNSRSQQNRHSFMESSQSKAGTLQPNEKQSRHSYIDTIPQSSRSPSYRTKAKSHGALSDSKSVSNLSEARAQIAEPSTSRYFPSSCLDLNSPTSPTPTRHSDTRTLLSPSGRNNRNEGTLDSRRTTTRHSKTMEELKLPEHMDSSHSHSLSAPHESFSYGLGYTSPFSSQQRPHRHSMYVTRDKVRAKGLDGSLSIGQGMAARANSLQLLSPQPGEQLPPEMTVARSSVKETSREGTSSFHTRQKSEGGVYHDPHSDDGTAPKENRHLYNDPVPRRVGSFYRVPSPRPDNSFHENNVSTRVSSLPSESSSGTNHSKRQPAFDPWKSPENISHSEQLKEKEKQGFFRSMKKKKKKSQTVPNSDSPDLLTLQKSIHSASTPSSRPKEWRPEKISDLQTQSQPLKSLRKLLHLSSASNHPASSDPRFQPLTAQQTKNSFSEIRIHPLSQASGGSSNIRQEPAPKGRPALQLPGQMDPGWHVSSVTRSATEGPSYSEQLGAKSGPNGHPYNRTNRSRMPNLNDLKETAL
Nature of the data set: Inhibition of CDKL5 (unknown origin) at 10 uM relative to control.

In data set [10] the target is Cyclin-dependent kinase 9 (Homo sapiens) (UniProt P50750). Put plainly: Inhibition of CDK9 (unknown origin) at 10 uM relative to control.
In data set [11] the target is Cyclin-dependent kinase 4/cyclin D1 (Homo sapiens) (UniProt P11802+P24385). Put plainly: Inhibition of CDK4/Cyclin D1 (unknown origin) at 10 uM relative to control. It is filed as protein-complex assay.
Data set [12] has as its target CDK4/Cyclin D3 (Homo sapiens) (UniProt P11802+P30281). Put plainly: Inhibition of CDK4/Cyclin D3 (unknown origin) at 10 uM relative to control. Type of data set: protein-complex assay.
Data set [13] addresses Cyclin-dependent kinase-like 3 (Homo sapiens) (UniProt Q8IVW4). Nature of the data set: Inhibition of CDKL3 (unknown origin) at 10 uM relative to control.
Data set [14] addresses Cyclin-dependent kinase 5 (Homo sapiens) (UniProt Q00535). Nature of the data set: Inhibition of CDK5 (unknown origin) at 10 uM relative to control.
For data set [15], the target named is Cyclin-dependent kinase 8 (Homo sapiens) (UniProt P49336). Put plainly: Inhibition of CDK8 (unknown origin) at 10 uM relative to control.
Data set [16] concerns the target Cyclin-dependent kinase 19 (Homo sapiens) (UniProt Q9BWU1). Nature of the data set: Inhibition of CDK11 (unknown origin) at 10 uM relative to control.
The target of data set [17] is Cyclin-dependent kinase-like 1 (Homo sapiens) (UniProt Q00532). Put plainly: Inhibition of CDKL1 (unknown origin) at 10 uM relative to control.
Data set [18] addresses Cyclin-dependent kinase 3 (Homo sapiens) (UniProt Q00526). Nature of the data set: Inhibition of CDK3 (unknown origin) at 10 uM relative to control.
Data set [19] concerns the target T4, Cyclin-dependent kinase-like 2 (Homo sapiens) (UniProt Q92772).
T4 sequence (whole entry): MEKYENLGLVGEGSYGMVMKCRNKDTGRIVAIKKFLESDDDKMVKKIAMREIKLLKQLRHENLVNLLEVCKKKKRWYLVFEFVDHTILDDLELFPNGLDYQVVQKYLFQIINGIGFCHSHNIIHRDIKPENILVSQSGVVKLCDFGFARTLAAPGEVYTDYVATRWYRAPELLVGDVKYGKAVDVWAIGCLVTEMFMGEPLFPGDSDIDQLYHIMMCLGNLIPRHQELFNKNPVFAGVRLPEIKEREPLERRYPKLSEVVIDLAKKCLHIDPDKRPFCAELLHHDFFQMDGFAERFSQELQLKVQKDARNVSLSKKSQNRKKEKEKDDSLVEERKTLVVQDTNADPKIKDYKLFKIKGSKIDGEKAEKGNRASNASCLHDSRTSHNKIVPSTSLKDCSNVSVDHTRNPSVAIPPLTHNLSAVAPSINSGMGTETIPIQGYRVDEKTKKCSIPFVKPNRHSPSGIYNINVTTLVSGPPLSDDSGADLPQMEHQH
Nature of the data set: Inhibition of CDKL2 (unknown origin) at 10 uM relative to control.

Data set [20] in a line: AUC (last) in mouse at 20 mg/kg, ip. Details: time 0 - last, route intraperitoneal, dose 20 mg/kg. It is filed as ADME, organism-based. As to conditions: in vivo.
Data set [21] in a line: Cmax in mouse at 20 mg/kg, ip. Type of data set: ADME, organism-based. Details: route intraperitoneal, dose 20 mg/kg. As to conditions: in vivo.

Values joined by “and” are separate entries in the source; they are usually repeats but may differ in a detail not shown here. Equal entries are not always repeated.

Sequence of Cyclin-dependent kinase-like 1 (Homo sapiens) (Q00532 whole entry): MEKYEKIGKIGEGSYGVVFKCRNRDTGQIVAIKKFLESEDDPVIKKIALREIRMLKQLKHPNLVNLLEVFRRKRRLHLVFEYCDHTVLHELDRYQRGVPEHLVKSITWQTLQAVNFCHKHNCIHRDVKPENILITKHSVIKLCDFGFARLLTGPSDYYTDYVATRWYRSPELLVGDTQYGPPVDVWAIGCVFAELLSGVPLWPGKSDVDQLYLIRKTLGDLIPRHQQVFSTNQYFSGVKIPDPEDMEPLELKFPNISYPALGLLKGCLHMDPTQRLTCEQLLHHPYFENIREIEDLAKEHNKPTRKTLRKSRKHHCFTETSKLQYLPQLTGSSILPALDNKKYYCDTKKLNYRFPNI
Sequence of Cyclin-dependent kinase 3 (Homo sapiens) (Q00526 whole entry, looked up): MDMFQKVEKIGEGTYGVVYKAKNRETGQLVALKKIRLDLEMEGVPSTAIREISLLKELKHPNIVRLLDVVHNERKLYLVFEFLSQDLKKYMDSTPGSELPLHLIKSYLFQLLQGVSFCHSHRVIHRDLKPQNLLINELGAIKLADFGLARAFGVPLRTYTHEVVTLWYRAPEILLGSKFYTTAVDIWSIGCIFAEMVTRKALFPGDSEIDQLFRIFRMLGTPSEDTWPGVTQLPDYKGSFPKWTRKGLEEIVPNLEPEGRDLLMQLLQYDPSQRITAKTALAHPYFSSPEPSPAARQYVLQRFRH
Sequence of Cyclin-dependent kinase 12 (Q9NYV4 whole entry): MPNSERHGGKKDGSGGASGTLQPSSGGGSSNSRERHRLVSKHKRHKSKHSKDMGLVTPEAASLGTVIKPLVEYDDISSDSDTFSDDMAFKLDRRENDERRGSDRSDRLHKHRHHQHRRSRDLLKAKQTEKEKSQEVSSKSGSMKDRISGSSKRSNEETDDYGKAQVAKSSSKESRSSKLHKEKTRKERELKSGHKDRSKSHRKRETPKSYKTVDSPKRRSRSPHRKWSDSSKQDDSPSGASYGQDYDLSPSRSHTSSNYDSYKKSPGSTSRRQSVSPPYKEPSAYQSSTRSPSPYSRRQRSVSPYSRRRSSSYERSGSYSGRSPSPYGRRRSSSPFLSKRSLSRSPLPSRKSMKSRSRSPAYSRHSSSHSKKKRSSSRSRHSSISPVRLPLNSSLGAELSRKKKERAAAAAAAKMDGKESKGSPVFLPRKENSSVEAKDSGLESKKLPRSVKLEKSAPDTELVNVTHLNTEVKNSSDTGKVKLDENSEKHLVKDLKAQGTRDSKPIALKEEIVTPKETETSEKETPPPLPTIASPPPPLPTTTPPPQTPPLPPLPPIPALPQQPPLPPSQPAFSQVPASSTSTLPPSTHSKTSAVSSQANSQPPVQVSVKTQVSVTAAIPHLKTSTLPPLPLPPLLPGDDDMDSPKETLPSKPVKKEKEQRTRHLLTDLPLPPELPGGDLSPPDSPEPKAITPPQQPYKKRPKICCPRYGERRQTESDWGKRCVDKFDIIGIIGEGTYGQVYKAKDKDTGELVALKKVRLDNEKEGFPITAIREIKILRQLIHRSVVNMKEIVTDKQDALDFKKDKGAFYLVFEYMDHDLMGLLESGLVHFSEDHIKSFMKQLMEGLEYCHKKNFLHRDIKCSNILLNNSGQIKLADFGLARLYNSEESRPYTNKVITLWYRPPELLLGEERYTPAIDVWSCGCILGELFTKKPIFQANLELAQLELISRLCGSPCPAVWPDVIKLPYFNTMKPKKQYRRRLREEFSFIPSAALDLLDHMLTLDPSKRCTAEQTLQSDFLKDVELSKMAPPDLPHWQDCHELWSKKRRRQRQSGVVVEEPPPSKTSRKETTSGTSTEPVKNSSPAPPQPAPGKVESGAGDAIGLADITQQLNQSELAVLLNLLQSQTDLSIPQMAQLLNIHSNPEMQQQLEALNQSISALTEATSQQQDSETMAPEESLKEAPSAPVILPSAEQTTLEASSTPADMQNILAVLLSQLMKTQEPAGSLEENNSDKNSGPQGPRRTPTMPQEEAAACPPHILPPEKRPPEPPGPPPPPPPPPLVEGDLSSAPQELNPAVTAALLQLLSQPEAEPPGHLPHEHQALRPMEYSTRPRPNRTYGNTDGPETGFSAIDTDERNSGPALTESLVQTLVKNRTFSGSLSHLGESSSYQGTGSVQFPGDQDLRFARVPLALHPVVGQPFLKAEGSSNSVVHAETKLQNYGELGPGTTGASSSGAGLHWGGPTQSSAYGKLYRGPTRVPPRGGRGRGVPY
Sequence of Cytochrome P450 3A4 (P08684 whole entry): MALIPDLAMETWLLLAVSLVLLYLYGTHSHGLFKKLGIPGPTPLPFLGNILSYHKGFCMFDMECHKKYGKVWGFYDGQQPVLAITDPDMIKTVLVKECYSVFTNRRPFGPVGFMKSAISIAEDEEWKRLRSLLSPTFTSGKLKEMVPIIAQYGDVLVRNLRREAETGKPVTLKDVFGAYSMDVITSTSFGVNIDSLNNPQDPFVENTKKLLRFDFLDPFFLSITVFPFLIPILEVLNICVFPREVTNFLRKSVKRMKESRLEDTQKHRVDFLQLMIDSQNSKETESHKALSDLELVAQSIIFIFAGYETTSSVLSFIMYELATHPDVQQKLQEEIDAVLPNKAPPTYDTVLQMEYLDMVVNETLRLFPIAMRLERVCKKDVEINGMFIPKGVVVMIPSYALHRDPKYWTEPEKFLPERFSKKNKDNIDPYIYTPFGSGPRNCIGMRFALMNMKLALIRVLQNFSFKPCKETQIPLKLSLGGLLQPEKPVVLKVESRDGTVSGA
Sequence of Cyclin-dependent kinase 9 (Homo sapiens) (P50750 whole entry): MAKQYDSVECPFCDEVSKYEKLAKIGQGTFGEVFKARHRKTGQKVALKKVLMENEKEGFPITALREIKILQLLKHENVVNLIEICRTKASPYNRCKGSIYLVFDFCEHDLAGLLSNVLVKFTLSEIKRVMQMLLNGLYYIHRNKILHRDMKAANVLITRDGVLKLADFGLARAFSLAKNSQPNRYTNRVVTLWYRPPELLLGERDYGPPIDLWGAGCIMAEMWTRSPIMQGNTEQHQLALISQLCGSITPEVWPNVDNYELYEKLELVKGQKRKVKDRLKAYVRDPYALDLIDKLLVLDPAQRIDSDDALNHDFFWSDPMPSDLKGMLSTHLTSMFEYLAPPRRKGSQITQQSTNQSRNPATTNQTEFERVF
Sequence of Cytochrome P450 2C9 (P11712 whole entry): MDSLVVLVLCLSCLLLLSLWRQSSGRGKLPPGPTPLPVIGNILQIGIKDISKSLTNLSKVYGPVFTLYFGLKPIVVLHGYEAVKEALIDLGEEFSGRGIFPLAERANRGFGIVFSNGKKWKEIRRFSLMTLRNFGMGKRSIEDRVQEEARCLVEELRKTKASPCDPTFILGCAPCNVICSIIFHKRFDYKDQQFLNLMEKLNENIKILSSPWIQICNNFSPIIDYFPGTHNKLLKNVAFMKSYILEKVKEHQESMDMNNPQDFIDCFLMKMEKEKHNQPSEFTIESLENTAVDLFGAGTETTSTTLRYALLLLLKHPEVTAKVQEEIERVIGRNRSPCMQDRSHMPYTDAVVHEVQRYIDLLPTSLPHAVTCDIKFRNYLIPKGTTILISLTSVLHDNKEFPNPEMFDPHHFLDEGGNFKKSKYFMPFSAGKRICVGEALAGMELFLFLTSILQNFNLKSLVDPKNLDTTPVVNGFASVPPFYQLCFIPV

What is called inhibition is the drop in the measured response relative to a control, in per cent. As usually defined, the IC50 is the point on the concentration scale where inhibition reaches its midpoint. By Kd is commonly meant the free concentration of one partner at which half of the binding sites on the other are occupied at equilibrium, for simple one-to-one binding. Take `COc1cc2nc(CNc3nc(N4CCOCC4)nc4c3ncn4-c3cnn(C)c3)[nH]c2cc1Cl`: the inhibition is 98% in data set [1], 99% in data set [5] and 12% in [6]. This molecule showed an IC50 in [2] of 2620 nM. In addition, the Kd in data set [3] was 38 nM; in data set [4], 2 nM.

Turning to `Cn1cc(-n2cnc3c(NCc4nc5cc(F)c(F)cc5[nH]4)nc(N4CCOCC4)nc32)cn1`, the “inhibition (INH)” value at Cytochrome P450 1A2 was found to be 5%; on Cytochrome P450 3A4, 55%; at Cytochrome P450 2C9, 23%; at Cytochrome P450 2D6, 2%.

On to `FC(F)n1cc(-n2cnc3c(NCc4nc5cc(Cl)c(Cl)cc5[nH]4)nc(N4CCOCC4)nc32)cn1`, for which the IC50 was 709 nM in data set [2] and 1260 nM in [7]. Also, the Kd in [3] was found to be 310 nM; in data set [4] it was 9 nM.

Consider `Fc1cccc(-n2cnc3c(NCc4nc5c(F)c(F)ccc5[nH]4)nc(N4CCOCC4)nc32)c1`, for which the inhibition in [8] amounted to 1%; in [9] it was 0%; in data set [10], 69%; in [11], 97%; in data set [12], 95%; in data set [13], 5%. Further, the inhibition in [1] was 72%; in [14], 18%; in data set [15], 22%; in data set [16], 0%; in data set [17], 8%; in data set [6], 100%. Further, the inhibition in data set [18] worked out at 6%; in [19] it was 0%.

For `Cn1cc(-n2cnc3c(NCc4nc5c(F)c(F)ccc5[nH]4)nc(N4CCOCC4)nc32)cn1`, the “inhibition (INH)” value is given as 10% against Cytochrome P450 1A2, 56% at Cytochrome P450 3A4, 23% against Cytochrome P450 2C9 and -3% at Cytochrome P450 2D6. The inhibition in data set [8] was found to be 6%; in [9] it was 0%; in data set [10], 43%; in [11], 99%; in [12], 99%; in [13], 0%. Further, the inhibition in data set [1] stood at 69%; in [15], 0%; in data set [16], 0%; in data set [17] it was 16%; in data set [6], 100%; in data set [18] it was 3%. In addition, the inhibition in data set [19] worked out at 0%.

On to `Cn1cc(-n2cnc3c(NCc4nc5cc(Cl)c(Cl)cc5[nH]4)nc(N4CCOC[C@@H]4CO)nc32)cn1`, for which the “inhibition (INH)” value stood at 42% against Cytochrome P450 1A2, 77% at Cytochrome P450 3A4, 69% on Cytochrome P450 2C9 and 42% at Cytochrome P450 2D6. For the same molecule, the IC50 is 145 nM in [2] and 333 nM in data set [7].

For orientation: AUC(0-t) means exposure summed from dosing to a finite time, without extrapolation to infinity. The term Cmax denotes the peak of the concentration-time curve. In data set [20], `Cn1cc(-n2cnc3c(NCc4nc5cc(Cl)c(Cl)cc5[nH]4)nc(N4CCOC[C@H]4CO)nc32)cn1` had an AUC(0-t) of 10 µM·h. Besides, the “inhibition (INH)” value was 39% against Cytochrome P450 1A2, 54% on Cytochrome P450 3A4, 54% against Cytochrome P450 2C9 and 29% at Cytochrome P450 2D6. The values for the 50% inhibitory concentration (IC50) in data set [2] and in [7] were 5360 nM and 6070 nM, respectively. The Cmax in data set [21] is 1430 ng/mL and 2.7 µM.

`Cc1cc(-n2cnc3c(NCc4nc5c(F)c(F)ccc5[nH]4)nc(N4CCOCC4)nc32)no1`: the “inhibition (INH)” value was 5% at Cytochrome P450 1A2, 55% on Cytochrome P450 3A4, 23% against Cytochrome P450 2C9 and 2% against Cytochrome P450 2D6. The inhibition in data set [8] worked out at 3%; in [9], 1%; in data set [10], 64%; in data set [11], 99%; in data set [12], 99%; in data set [13], 0%. In addition, the inhibition in data set [1] came out at 69%; in data set [15], 40%; in data set [16], 23%; in [17] it was 16%; in data set [6], 100%; in data set [18], 8%. The molecule also gave an inhibition in data set [19] of 2%.

Consider `Fc1ccc2[nH]c(CNc3nc(N4CCOCC4)nc4c3ncn4-c3cscn3)nc2c1F`, for which the “inhibition (INH)” value against Cytochrome P450 1A2 is reported as 97%; on Cytochrome P450 3A4, 89%; against Cytochrome P450 2D6, 57%. For the same molecule, the IC50 turned out to be 1280 nM in [2] and 870 nM in data set [7]. The Kd in [3] was 18 nM; in data set [4], 6 nM.
